Results reported in patent US20240336934A1, “CRISPR/CAS9-BASED COMPOSITIONS AND METHODS FOR TREATING RETINAL DEGENERATIONS” (The Johns Hopkins University, priority 2016, published 2024).

Legend:
[1] = tested on: RGCs; details: rat optic nerve transection and glaucoma models; cited from earlier work
[2] = tested on: primary RGCs; experiment: Primary RGC survival (CellTiter-Glo) after immunopanning / colchicine; format: cell-based, mouse; details: combined knockdown of both DLK and LZK
Description: For this screen, a high-throughput method was developed for knocking down gene expression in primary RGCs, from male and female C57Bl/6 mice (7), with small interfering RNA oligonucleotides (siRNAs) and coupled it with a quantitative assay of RGC survival (CellTiter-Glo, Promega) (5).
In order to identify these other targets, the kinome screen was modified to include Dlk siRNA in every well and sensitize it to those library siRNAs that synergized with DLK knockdown to further increase RGC survival (FIG. 19A). The other modification was to allow 48 hours for extant protein turnover, before exacerbating the immunopanning injury with colchicine, a microtubule destabilizer that has been used to model axon injury in vitro and in vivo (15, 16).

[3] = tested on: hESC-derived RGCs; experiment: Survival of hESC-derived RGCs after colchicine challenge; format: cell-based, human; details: two days after colchicine (1 μM); tozasertib (1 μM), Genentech inhibitor 123 (0.1 μM)
Description: FIG. 69A depicts survival (±SD) of hESC-derived RGCs two days after a challenge with vehicle or colchicine (1 μM) in the presence of the DLK/LZK inhibitors tozasertib (1 μM), Genentech inhibitor 123 (0.1 μM) or a vehicle control. FIG. 69B depicts survival (±SD) of hESC-derived RGCs two days after a challenge with colchicine (1 μM) in the presence of increasing doses of sunitinib.

[4] = tested on: primary RGCs; details: compared with DLK knockdown or knockout alone; cited from earlier work
[5] = molecular target: T1, DLK (Homo sapiens, UniProt Q12852); details: published kinase inhibitor profiling data; cited from earlier work
T1 sequence (Q12852 1-859): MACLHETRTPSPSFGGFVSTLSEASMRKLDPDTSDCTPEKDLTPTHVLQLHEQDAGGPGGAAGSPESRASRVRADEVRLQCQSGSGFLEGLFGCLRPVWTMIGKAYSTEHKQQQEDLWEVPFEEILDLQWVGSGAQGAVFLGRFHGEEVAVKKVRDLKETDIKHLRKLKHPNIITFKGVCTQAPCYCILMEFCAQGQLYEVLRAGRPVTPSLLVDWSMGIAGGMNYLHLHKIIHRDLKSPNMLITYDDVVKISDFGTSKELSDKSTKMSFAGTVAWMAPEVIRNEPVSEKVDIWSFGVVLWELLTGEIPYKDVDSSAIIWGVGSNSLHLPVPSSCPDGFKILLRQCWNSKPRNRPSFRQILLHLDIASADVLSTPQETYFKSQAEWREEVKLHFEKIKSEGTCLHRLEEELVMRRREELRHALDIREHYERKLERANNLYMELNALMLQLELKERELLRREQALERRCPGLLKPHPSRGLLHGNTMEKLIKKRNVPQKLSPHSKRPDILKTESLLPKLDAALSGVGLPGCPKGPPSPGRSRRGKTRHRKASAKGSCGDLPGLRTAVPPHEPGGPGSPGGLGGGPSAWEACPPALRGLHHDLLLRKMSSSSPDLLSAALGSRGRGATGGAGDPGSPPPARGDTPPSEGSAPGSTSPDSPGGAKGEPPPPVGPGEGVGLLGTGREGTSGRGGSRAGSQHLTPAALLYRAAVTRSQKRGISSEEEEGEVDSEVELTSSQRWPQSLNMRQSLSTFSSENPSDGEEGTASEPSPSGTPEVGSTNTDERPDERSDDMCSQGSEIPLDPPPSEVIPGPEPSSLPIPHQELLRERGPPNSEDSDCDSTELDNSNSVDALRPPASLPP

[6] = molecular target: T2, LZK (Homo sapiens, UniProt O43283); details: published kinase inhibitor profiling data; cited from earlier work
T2 sequence (O43283 1-966): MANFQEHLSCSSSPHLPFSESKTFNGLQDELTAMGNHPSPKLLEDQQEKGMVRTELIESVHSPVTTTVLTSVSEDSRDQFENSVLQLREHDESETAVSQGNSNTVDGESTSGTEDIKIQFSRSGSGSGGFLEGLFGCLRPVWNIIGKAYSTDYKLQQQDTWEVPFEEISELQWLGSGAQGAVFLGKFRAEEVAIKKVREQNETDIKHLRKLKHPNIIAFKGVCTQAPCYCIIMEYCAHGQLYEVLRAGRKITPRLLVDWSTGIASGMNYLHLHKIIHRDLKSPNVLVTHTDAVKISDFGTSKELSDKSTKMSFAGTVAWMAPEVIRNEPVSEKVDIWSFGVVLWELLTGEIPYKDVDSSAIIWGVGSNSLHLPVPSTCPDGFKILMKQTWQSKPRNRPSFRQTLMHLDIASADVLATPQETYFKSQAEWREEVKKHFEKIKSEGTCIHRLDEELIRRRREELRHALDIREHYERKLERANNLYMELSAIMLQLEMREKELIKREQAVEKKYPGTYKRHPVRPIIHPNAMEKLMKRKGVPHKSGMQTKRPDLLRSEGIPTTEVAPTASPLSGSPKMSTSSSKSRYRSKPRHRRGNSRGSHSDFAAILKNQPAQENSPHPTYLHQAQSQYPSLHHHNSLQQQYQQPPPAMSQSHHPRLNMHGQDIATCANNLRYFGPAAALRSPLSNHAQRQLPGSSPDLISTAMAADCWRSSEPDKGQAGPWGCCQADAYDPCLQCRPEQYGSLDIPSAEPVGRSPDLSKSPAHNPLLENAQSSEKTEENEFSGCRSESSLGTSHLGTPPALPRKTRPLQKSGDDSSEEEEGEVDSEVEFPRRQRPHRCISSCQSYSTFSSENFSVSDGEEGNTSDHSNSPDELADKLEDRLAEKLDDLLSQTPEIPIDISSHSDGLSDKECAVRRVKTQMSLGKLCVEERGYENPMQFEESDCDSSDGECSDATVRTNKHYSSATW

[7] = tested on: Dlk; experiment: scAAV/lentivirus transduction of RGCs from Cas9 mouse; BglII assay for Dlk gene editing; format: cell-based; details: gRNA delivered by ssAAV, Cas9 present from the mouse
Description: Cells were harvested from the Cas9 mouse, and transduced in vitro. […] The construct was packaged to produce a self-complementary AAV (scAAV). […] Cells were harvested from the Cas9 mouse, and transduced in vitro. […] The gRNA (mm079) was delivered by ssAAV and Cas9 was present from the mouse
Titration of scAAV virus transducing either WT RGC or RGCs derived from the Cas9 mouse. […] In this assay, we are assaying for cutting by loss of a restriction enzyme site. […] A construct was generated using the H1 promoter to express a gRNA (shown in black) and mCherry simultaneously. […] The construct was packaged to produce a self-complementary AAV (scAAV).
To test this system, an AAV construct was generated that used the H1 promoter to express an mCherry-histone 2B fusion in the Pol II direction and the Dlk #4 gRNA (5′[sequence] 3′ (SEQ ID NO: 163)), which conveniently targets a BglII site (FIGS. 19G and 1H), in the Pol III direction (Dlk gRNA:H1:H2B-mCherry). […]
For restriction analysis, genomic DNA was extracted by resuspending cells in QuickExtract solution (Epicentre, Madison, WI), incubating at 65° C. for 20 min, and then at 98° C. for 20 min. The extract solution was used directly or cleaned using DNA Clean and Concentrator (Zymo Research, Irvine, CA), and quantitated by NanoDrop (Thermo 30 Fisher Scientific).

Molecule | protection of RGCs [1] | RGC survival on addition of drug to combined knockdown of DLK and LZK [2] | survival of hESC-derived RGCs [3] | RGC survival in vitro [4] | inhibitor of DLK [5] | inhibition of LZK [6] | targeting as detected by a BglII assay [7]
Cc1cc(Nc2cc(N3CCN(C)CC3)nc(Sc3ccc(NC(=O)C4CC4)cc3)n2)[nH]n1 [tozasertib] | protected RGCs in both the rat optic nerve transection and glaucoma models | had no effect | promotes the survival of human ESC-derived RGCs | consistently improved RGC survival in vitro more than DLK knockdown or knockout alone | identified as an inhibitor of DLK | does inhibit LZK | 
GAAGAAGGTTCGAGATCTCAAGG (chemistry not given here) [mm079] |  |  |  |  |  |  | ~100%
